The source of these data is patent US20210040533A1, “METHOD FOR IDENTIFYING TARGET GENE OF TEST SUBSTANCE” (DRUG GENOMICS, LTD., priority 2018, published 2021).

The test system of this assay is CBS138 strain (wild strain). Description: Determination of 50% inhibitory concentration of antifungal drug on wild strain (turbidity at OD 600). The assay is classed as cell-based, Candida glabrata. Conditions: Nakaseomyces glabratus, SD medium, 30° C., 20 hours, turbidity at OD 600 decreased to about 50%.

For the molecule `OC(Cn1cncn1)(Cn1cncn1)c1ccc(F)cc1F` [fluconazole], it took 50 µM to reach half-maximal inhibition (IC50).
In the case of `CN(C/C=C/C#CC(C)(C)C)Cc1cccc2ccccc12` [terbinafine], the concentration for half-maximal inhibition (IC50) (commonly the concentration at which inhibition is half-maximal) stood at 48 µM.
